Laboratory results from patent US20040136985A1, “Methods of modifying behavior of CD9-expressing cells” (priority 2002, published 2004).
“Also recorded” adds a separate entry of the source. Where two headings read alike, the source gives them in different places. Where no end group is shown, it is not given here.

Legend:
CD9-CHO cells = format: cell-based; conditions: FN coated inserts blocked with peptide (0.5 μM)
Protocol: The motility assays were performed using two methodologies. The first method was modified from Bauer et al. (J. Cell. Biol. 116:477-487 (1992), which is hereby incorporated by reference in its entirety). Cell cycle synchronized CHO cells were seeded into tissue culture plates, grown to approximately 50% confluency, and harvested. The cells were washed twice with Media A, adjusted to 4×10^5/ml, allowed to rest at 37° C. for 30 min in Media B, then transferred into modified Boyden chambers. The upper and lower chambers were separated by a polycarbonate filter, with 8 μm pores, pre-coated on the underside only with 10 μg/ml FN. After 3 or 6 hours, cells on the FN-coated side of the filters were fixed, stained with hematoxylin, and mounted onto slides. The total numbers of adherent cells from five high-powered fields (HPF) per filter were counted per time point per assay. The second method for assessing the motility of CD9-transfected CHO cells utilized 10 mm polycarbonate tissue culture inserts with 8 μm pores (Nunc, Rochester, N.Y.). Tissue culture inserts were coated on the underside with FN as described above for Boyden Chambers. […] CHO cells adhered to the FN-coated underside of tissue culture inserts were stained with Wrights Giemsa and the number of adherent cells in five random high power fields were counted per time point per assay. […]

CD9-CHO-B2 cells = assay: Adhesion of CD9-CHO-B2 cells (lacking integrin α5β1) to FN, peptide inhibition; format: cell-based; conditions: peptide 0.5 μM
Protocol: CHO cell adhesion assays were done as described by Cook et al. (Exp. Cell. Res. 251:356-371 (1999), which is hereby incorporated by reference in its entirety). Briefly, 24-well cell culture plates (Coming, Acton, Mass.) were coated with FN (10 μg/ml) and blocked with PBS, 3% BSA. CHO cells were cell synchronized, harvested, and resuspended at 1×10^5 cell/ml in adhesion media (RPMI, 1% BSA). For peptide inhibition studies, peptides were added to CHO cell suspension to give a final concentration of 0.5 μM and cells were incubated at 37° C. for 30 minutes. 1 ml CHO cell suspension was added to each well and CHO cells were allowed to adhere for either 3 or 6 hours, then adherent cells were stained with Wright Giemsa and counted.

[1] = tested on: mAb7 binding to CD9 expressed on CHO A6 cells; assay: Flow cytometry: peptide blocking of mAb7 binding to CD9 on CHO A6 cells; design: species or system human; conditions: 100 μg peptide with 1 μg mAb7
Protocol: 100 μg of peptide 5a, 5, 5b, or 6a was incubated with 1 μg mAb7 for 30 minutes at room temperature. CD9 CHO cells (clone A6) were harvested, washed twice with PBS, and resuspended in labeling media (2.5×10^5 cells/mL); 4 μL mAb7-peptide solution was added to 2.5×10^5 cells and incubated for 1 hour at 4° C. MOPC2, and mAb7 alone were used as negative and positive controls, respectively. Cells were washed with PBS, resuspended in labeling media, and bound mAb7 was detected with a species-specific FITC-conjugated second antibody, followed by flow cytometry as described above.

CHO A6 cells = assay: Basic adhesion assay of CHO A6 cells on FN; format: cell-based; conditions: 0.5 μM peptide, 3 hours
Protocol: 24-well culture plate wells were coated with human plasma FN (10 μg/mL FN in PBS for 3 hours at 37° C.) and blocked with PBS, 3% bovine serum albumin (BSA) for 1 hour at 37° C. Mock- and CD9-CHO cells were harvested as described previously. After a 30-minute rest period at 37° C., 10^5 cells/well were seeded in FN-coated 24-well plates and incubated for 3 hours at 37° C. For some experiments, cells were incubated in the presence of 0.5 μM of peptides corresponding to amino acid sequences of CD9 EC2. Wells were washed 4 times with adhesion media, stained with modified Wright Giemsa, and adherent cells were counted in five randomly selected high-power fields of view per well using an inverted phase contrast microscope, Olympus IMT-2 (Olympus, Lake Success, N.Y.). All assays were run in triplicate, and the cell counts were reported as the number of adherent cells/mm^2 of well surface area. The mean number of adherent cells/mm^2±SE of 3 independent assays were reported (n=45).

FN [2] = biological target: FN (Homo sapiens, UniProt P02751); assay: Surface plasmon resonance biosensor analysis of FN captured by anti-FN mAbs; format: binding
Chain of FN (Homo sapiens, UniProt P02751) (P02751 32-2477): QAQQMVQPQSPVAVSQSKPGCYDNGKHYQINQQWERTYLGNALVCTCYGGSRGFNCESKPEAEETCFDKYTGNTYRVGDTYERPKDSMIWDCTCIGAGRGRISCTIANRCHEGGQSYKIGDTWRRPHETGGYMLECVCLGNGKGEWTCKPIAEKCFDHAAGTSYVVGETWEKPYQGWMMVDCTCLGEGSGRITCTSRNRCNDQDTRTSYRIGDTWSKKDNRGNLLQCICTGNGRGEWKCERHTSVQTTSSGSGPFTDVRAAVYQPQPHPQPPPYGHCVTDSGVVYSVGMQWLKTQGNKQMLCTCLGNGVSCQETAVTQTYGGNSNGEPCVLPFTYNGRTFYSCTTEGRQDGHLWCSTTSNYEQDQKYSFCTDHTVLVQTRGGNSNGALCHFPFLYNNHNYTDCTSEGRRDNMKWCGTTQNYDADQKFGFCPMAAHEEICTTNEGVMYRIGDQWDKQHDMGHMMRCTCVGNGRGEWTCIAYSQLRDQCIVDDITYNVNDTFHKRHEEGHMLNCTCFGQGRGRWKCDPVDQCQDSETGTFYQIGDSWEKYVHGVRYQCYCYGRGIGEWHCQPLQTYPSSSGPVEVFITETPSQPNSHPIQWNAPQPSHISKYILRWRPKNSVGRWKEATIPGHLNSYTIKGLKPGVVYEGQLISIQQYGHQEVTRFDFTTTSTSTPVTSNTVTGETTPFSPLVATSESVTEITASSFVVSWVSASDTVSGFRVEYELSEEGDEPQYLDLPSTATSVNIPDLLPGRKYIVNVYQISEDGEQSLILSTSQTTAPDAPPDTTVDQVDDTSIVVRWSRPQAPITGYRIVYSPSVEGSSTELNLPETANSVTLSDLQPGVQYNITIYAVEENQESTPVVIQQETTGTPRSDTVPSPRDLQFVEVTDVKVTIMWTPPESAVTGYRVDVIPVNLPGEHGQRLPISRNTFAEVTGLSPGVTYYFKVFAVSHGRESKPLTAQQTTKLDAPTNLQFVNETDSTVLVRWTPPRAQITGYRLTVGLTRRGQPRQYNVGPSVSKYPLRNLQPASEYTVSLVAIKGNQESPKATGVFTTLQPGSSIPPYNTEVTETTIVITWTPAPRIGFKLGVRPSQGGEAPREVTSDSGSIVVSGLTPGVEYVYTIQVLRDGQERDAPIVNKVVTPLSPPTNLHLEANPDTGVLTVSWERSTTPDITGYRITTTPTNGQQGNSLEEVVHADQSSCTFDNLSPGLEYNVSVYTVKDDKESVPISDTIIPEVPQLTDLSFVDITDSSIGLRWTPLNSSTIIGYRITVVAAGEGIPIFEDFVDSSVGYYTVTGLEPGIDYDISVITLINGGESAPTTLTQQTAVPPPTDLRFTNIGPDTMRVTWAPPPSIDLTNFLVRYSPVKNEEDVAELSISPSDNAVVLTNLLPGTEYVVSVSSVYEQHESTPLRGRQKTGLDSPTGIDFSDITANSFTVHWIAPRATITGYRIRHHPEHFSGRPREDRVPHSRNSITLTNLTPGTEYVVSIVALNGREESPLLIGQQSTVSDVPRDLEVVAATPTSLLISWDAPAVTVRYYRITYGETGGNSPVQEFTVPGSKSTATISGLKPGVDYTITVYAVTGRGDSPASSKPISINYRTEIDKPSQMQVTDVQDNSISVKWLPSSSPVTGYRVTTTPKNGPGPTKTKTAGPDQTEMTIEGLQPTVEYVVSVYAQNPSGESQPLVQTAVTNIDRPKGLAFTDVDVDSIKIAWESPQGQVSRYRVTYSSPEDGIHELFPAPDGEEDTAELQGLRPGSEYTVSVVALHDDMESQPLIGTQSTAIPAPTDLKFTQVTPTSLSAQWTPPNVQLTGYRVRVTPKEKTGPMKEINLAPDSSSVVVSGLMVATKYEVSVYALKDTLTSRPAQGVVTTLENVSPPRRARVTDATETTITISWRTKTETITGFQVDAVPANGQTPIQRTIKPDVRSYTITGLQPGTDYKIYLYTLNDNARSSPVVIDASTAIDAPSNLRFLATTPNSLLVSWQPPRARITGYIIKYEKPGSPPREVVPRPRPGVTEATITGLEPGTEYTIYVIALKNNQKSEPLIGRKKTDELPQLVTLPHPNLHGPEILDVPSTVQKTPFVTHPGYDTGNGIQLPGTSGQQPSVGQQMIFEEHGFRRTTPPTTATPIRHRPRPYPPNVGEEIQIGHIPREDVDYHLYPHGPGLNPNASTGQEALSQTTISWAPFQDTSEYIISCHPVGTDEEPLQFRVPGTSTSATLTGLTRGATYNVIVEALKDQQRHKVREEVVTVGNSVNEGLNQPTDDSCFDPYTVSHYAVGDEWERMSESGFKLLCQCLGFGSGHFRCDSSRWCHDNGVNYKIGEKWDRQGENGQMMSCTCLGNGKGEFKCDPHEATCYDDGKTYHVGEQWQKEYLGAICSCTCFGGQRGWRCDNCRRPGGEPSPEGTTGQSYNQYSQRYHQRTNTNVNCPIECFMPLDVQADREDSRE

FN [3] = assay: ELISA for fibronectin binding to immobilized CD9, His6-rCD9 or peptide; design: species or system human; conditions: for soluble FN binding to immobilized peptide compared to intact platelet purified CD9: FN 75 μg/ml
Protocol: (§1) All incubation periods for the CD9/FN binding ELISA lasted two hours at RT unless otherwise indicated. Immulon I (Dynatech) microtiter plate wells were coated with CD9 (2 μg/ml), His6-rCD9 (2 μg/ml), BSA (10 μg/ml), or peptide (10 μM) in Buffer A. After one wash with Buffer B, plates were blocked with Blocking Buffer 1.1% BSA was included in steps from ligand overlay to addition of mAb conjugate to minimize non-specific binding. Titrations of human plasma FN in Buffer B were added to plates either alone, or in the case of competition ELISAs, with 0-160 μM synthetic peptide. Plates were washed three times with ELISA Buffer B, followed by incubation with a 1/1000 dilution of rabbit anti-FN antibody. After two washes with Buffer B and one wash with Buffer C, plates were incubated with 1/500 antirabbit IgG alkaline phosphatase in Buffer C for one hour at RT. After four washes with Buffer C, 1 mg/mlp-nitrophenyl phosphate substrate was added and the absorbance at 405 nm was recorded.

human coronary SMCs [4] = assay: SMC migration, monolayer-wounding assay; format: cell-based; conditions: 2% serum, 24 h
Protocol: (§2) Cell migration was measured via a monolayer-wounding assay, as described by Brown et al. (Circ Res. 84:655-667 (1999), which is hereby incorporated by reference in its entirety). Briefly, 100% confluent cells were treated with serum-free medium containing hydroxyurea (5 mM)(DMEM supplemented with 100 U/mL penicillin, 100 μg/mL streptomycin and 5 mM hydroxyurea) for 24 h before the start of experiments. Hydroxyurea was used to prevent cell proliferation and block the possible effect of CD9 on SMCs proliferation. The capacity of hydroxyurea to prevent proliferation was verified by showing that it inhibited thymidine incorporation by >99%. After incubation with hydroxyurea, cells were rinsed with DMEM (serum free), and a ≈1 mm wide scratch was made with a sterile 20 ul tip with the help of a ruler. After that, the cells were incubated in the DMEM medium. […] Plates were rinsed twice with PBS, and analyzed via computerized image analysis system (scion Image CMS-800). Cell migration was expressed as the distance migrated in the 24 hours (Chang et al., Circ. Res. 91(5):390-397 (2002), which is hereby incorporated by reference in its entirety). […]

FN-CD9 binding = assay: Competition ELISA: effect of peptides on FN binding to immobilized CD9; design: species or system human
Protocol: as §1

human coronary SMCs [5] = assay: Verification that hydroxyurea prevents SMC proliferation (thymidine incorporation); format: cell-based; conditions: 5 mM hydroxyurea
Protocol: as §2

FN/CD9 interaction = assay: ELISA modified for effects of metal salts on the FN/CD9 interaction; format: binding, human; conditions: 0-4.5 mM metal salt
Protocol: The standard ELISA assay format was modified to evaluate the effects of divalent and monovalent metal salts on the FN/CD9 interaction. The ELISA buffers contained 0.5 mM EGTA and metal salt was excluded from antigen plating and primary wash step. Antigen was plated in Buffer D. The plates were washed once with Buffer E and then blocked with Blocking Buffer 2. Subsequent steps up to and including the second wash after the FN overlay were done in Buffer F, which contained 0-4.5 mM metal salt. After the FN overlay, plates were washed once with Buffer F (+/−metal salt), then twice with Buffer G. The subsequent incubations and washes were performed with Buffer G.

[6] = FN concentration, 2.5 mM Ca2+, read-out: half maximal binding with FN

In the case of “KEFDFKAPSVCKVEDIDTKTL [peptide 6S, reference compound]”, the “effect on CD9-mediated CHO cell motility to FN” value (CD9-CHO cells) is reported as “lack of inhibition” and the “effect on CD9-CHO-B2 cell adhesion to FN” value (CD9-CHO-B2 cells) is reported as “no significant effect”.
For YSHKDEVIKEVQEFYKDTYNKLKT [peptide 5a], the “blocking of mAb7 binding to cell surface CD9” value (from here on “blocking of mAb7 binding”) [1] was “neither peptide 5a nor 5 blocked”.
For PKKDVLETFTVKSCPDAI [peptide 6a], the “blocking of mAb7 binding” value [1] was “blocked mAb7 binding” and the “effect on adhesive phenotype of CHO A6 cells on FN” value (shortened to “effect on adhesive phenotype”) (CHO A6 cells) was “equivalent to that of CHO MOCK cells; also recorded: reversed the inhibitory influence of CD9”.
With “CD9: purified platelet CD9, 24 kDa integral membrane glycoprotein (SEQ ID NO: 1)” the “association between captured FN and purified CD9” value (FN [2]) was “specific association”, the “half-maximal binding of soluble FN to immobilized CD9” value (FN [3]; 2.5 mM CaCl2, FN concentration) was 35.6 µg/mL and the EC50 (FN [3]; 2.5 mM CaCl2, FN concentration, read-out: half-maximal binding of soluble FN to immobilized CD9) was 81 nM. The EC50 (FN [3]; [6]) was 81 nM and the Kd (FN [3]; platelet-derived or recombinant CD9, read-out: affinity of FN-CD9 interaction) was 80 nM.
PKKDVLETFTVKSCPDAIKEVFDNK [peptide 6] was tested, and the “effect on CD9-mediated CHO cell motility to FN” value (CD9-CHO cells) was “competitively inhibited”, the “blocking of mAb7 binding” value [1] was “blocked mAb7 binding to soluble CD9 and to CD9 on intact cells” and the “effect on adhesive phenotype” value (CHO A6 cells) was “reversed the adhesive phenotype”. The “effect on CD9-CHO-B2 cell adhesion to FN” value (CD9-CHO-B2 cells) was “able to block”, the “effect on CD9-CHO-B2 cell adhesion to FN” value (CD9-CHO-B2 cells; listed as Peptide 6) was “inhibited the adhesion level of CD9-CHO-B2 cells on FN to that seen with Mock-CHO-B2 cells” and the “direct binding of FN” value (FN [3]) was “binds directly”. The “soluble FN binding to immobilized peptide compared to intact platelet purified CD9” value (FN [3]) was 65%, the “effect on SMC migration” value (human coronary SMCs [4]) was “dose dependent inhibitory effect” and the “maximal inhibitory effect on serum-induced migration” value (human coronary SMCs [4]; at 40 μM) was ~65%. For the same molecule, the “inhibition of FN binding to CD9” value (FN-CD9 binding; peptide 0-160 μM) was “significantly inhibited; also recorded: competitively inhibited binding of FN to purified CD9 in a dose-dependent fashion; also recorded: partially inhibited” and the “peptide concentration at maximal inhibition of FN binding to CD9” value (FN-CD9 binding; titration 0-160 μM) was 60 µM.
For “KDEPQRETLKAIHYALNCCGLAGGVEQFISDICPKKDV [peptide 5b]”, the “blocking of mAb7 binding” value [1] was “blocked mAb7 binding to soluble CD9 and to CD9 on intact cells” and the “effect on adhesive phenotype” value (CHO A6 cells) was “equivalent to that of CHO MOCK cells; also recorded: reversed the adhesive phenotype; also recorded: reversed the inhibitory influence of CD9”.
For NC(=O)NO [hydroxyurea], the inhibition at 5000 µM (human coronary SMCs [5]) was > 99%.
For “His6-rCD9: bacterially expressed histidine tagged recombinant CD9”, the EC50 (FN [3]; [6]) was 120 nM and the “binding to FN lower than for purified CD9 (absolute ELISA values)” value (FN [3]; versus purified platelet CD9) was 40%.
[Ca+2].[Cl-].[Cl-] [CaCl2] was tested, and the “effect of cation on CD9/FN interaction” value (FN/CD9 interaction) was “stimulated”.
For YKDTYNKLKTKDEPQRETLKAI [peptide 5], the “blocking of mAb7 binding” value [1] was “neither peptide 5a nor 5 blocked”, the “effect on adhesive phenotype” value (CHO A6 cells) was “no effect” and the “soluble FN binding to immobilized peptide compared to intact platelet purified CD9” value (FN [3]) was 19%.
